By IC50 is commonly meant the concentration at which inhibition is half-maximal.

The subject of this assay is Human recombinant GST-PI3K. The assay is described as follows: PI3K induced-lipid phosphorylation scintillation proximity assay (neomycin-coated SPA beads). The class given is biochemical. The note with it: amount necessary to achieve 50% inhibition of PI3K; 120 min at room temperature. The text has this: The efficacy of compounds of the invention in inhibiting the PI3K induced-lipid phosphorylation may be tested in the following binding assay. The assay combines the scintillation proximity assay technology (SPA, Amersham) with the capacity of neomycin (a polycationic antibiotic) to bind phospholipids with high affinity and specificity. The Scintillation Proximity Assay is based on the properties of weakly emitting isotopes (such as ^3H, ^125I, ^33P). Coating SPA beads with neomycin allows the detection of phosphorylated lipid substrates after incubation with recombinant PI3K and radioactive ATP in the same well, by capturing the radioactive phospholipids to the SPA beads through their specific binding to neomycin. To a 96 wells MTP containing 10 μl of the test compound of Formula (I) (solubilized in 10% DMSO; to yield a concentration of 100, 25, 5.0, 1.25, 0.312, 0.078, 0.0195, 0.00488, 0.00122 and 0.0003 μM of the test compound), the following assay components are added: 1) 10 μL of lipid micelles 2) […] of Kinase buffer ([^33P]γATP162 μM/300 nCi, MgCl2 2.5 mM, DTT 2.5 mM, Na3VO4 25 μM in Hepes 40 mM, pH 7.4) and 3) 10 μL (100 ng) of Human recombinant GST-PI3K (in Hepes 40 mM, pH 7.4, ethylenglycol 4%). After incubation at room temperature for 120 minutes, with gentle agitation, the reaction is stopped by addition of 200 μL of a solution containing 250 μg of neomycin-coated PVT SPA beads, ATP 60 mM and EDTA 6.2 mM in PBS. The assay is further incubated at room temperature for 60 minutes with gentle agitation to allow binding of phospholipids to neomycin-SPA beads. After precipitation of the neomycin-coated PVT SPA beads for 5 minutes at 1500×g, radioactive PtdIns(3)P is quantified by scintillation counting in a Wallac MicroBeta™ plate counter. The values indicated in Table I below refer to the IC50 (μM) with respect to PI3K, i.e. the amount necessary to achieve 50% inhibition of said target. Said values show a considerable inhibitory potency of pyridopyrimidine compounds with regard to PI3K.
(In a scintillation proximity assay essentially only radioactivity close to the scintillant gives light.)

Take `COCCNc1cc(C(=O)O)nc2c(-c3cccc(COC)c3)nc(N3CCOCC3)nc12` [Example 26, 8-(2-Methoxy-ethylamino)-4-(3-methoxymethyl-phenyl)-2-morpholin-4-yl-pyrido[3,2-d]pyrimidine-6-carboxylic acid]: the IC50 turned out to be 1830 nM.
To `COCc1cccc(-c2nc(N3CCOCC3)nc3c(N(C)CCO)cc(C(=O)O)nc23)c1` [Example 27, 8-[(2-Hydroxy-ethyl)-methyl-amino]-4-(3-methoxymethyl-phenyl)-2-morpholin-4-yl-pyrido[3,2-d]pyrimidine-6-carboxylic acid] belongs 1850 nM; to `COCc1cccc(-c2nc(N3CCOCC3)nc3c(NCCO)cc(C(=O)O)nc23)c1` [Example 28, 8-(2-Hydroxy-ethylamino)-4-(3-methoxymethyl-phenyl)-2-morpholin-4-yl-pyrido[3,2-d]pyrimidine-6-carboxylic acid], 2490 nM.
To `CN(C)c1cc(C(=O)O)nc2c(-c3cc(F)ccc3O)nc(N3CCOCC3)nc12` [Example 29, 8-(Dimethylamino)-4-(5-fluoro-2-hydroxyphenyl)-2-morpholin-4-ylpyrido[3,2-d]pyrimidine-6-carboxylic acid] belongs 66 nM.
For `CNc1cc(C(=O)O)nc2c(-c3cc(F)ccc3O)nc(N3CCOCC3)nc12` [Example 30, 4-(5-Fluoro-2-hydroxyphenyl)-8-(methylamino)-2-morpholin-4-ylpyrido[3,2-d]pyrimidine-6-carboxylic acid], the IC50 stood at 304 nM.
With `COCCNc1cc(C(=O)O)nc2c(-c3cc(F)ccc3O)nc(N3CCOCC3)nc12` [Example 31, 4-(5-Fluoro-2-hydroxyphenyl)-8-[(2-methoxyethyl)amino]-2-morpholin-4-ylpyrido[3,2-d]pyrimidine-6-carboxylic acid], the concentration for half-maximal inhibition (IC50) was found to be 73 nM.
In the case of `CN(C)CCN(C)c1cc(C(=O)O)nc2c(-c3cc(F)ccc3O)nc(N3CCOCC3)nc12` [Example 32, 8-[[2-(Dimethylamino)ethyl](methyl)amino]-4-(5-fluoro-2-hydroxyphenyl)-2-morpholin-4-ylpyrido[3,2-d]pyrimidine-6-carboxylic acid] it was 564 nM; in that of `COCCN(C)c1cc(C(=O)O)nc2c(-c3cccc(F)c3O)nc(N3CCOCC3)nc12` [Example 33, 4-(3-Fluoro-2-hydroxyphenyl)-8-[(2-methoxyethyl)(methyl)amino]-2-morpholin-4-ylpyrido[3,2-d]pyrimidine-6-carboxylic acid], 9 nM; in that of `CNc1cc(C(=O)O)nc2c(-c3cccc(F)c3O)nc(N3CCOCC3)nc12` [Example 35, 4-(3-Fluoro-2-hydroxyphenyl)-8-(methylamino)-2-morpholin-4-ylpyrido[3,2-d]pyrimidine-6-carboxylic acid], 48 nM.
In the case of `COCCNc1cc(C(=O)O)nc2c(-c3cccc(F)c3O)nc(N3CCOCC3)nc12` [Example 36, 4-(3-Fluoro-2-hydroxyphenyl)-8-[(2-methoxyethyl)amino]-2-morpholin-4-ylpyrido[3,2-d]pyrimidine-6-carboxylic acid] it was 18 nM; in that of `CN(CCO)c1cc(C(=O)O)nc2c(-c3cccc(F)c3O)nc(N3CCOCC3)nc12` [Example 37, 4-(3-Fluoro-2-hydroxyphenyl)-8-[(2-hydroxyethyl)(methyl)amino]-2-morpholin-4-ylpyrido[3,2-d]pyrimidine-6-carboxylic acid], 10 nM; in that of `O=C(O)c1cc(NCCO)c2nc(N3CCOCC3)nc(-c3cccc(F)c3O)c2n1` [Example 38, 4-(3-Fluoro-2-hydroxyphenyl)-8-[(2-hydroxyethyl)amino]-2-morpholin-4-ylpyrido[3,2-d]pyrimidine-6-carboxylic acid], 43 nM.
With `CS(=O)(=O)c1cc(C(=O)O)nc2c(-c3cccc(F)c3O)nc(N3CCOCC3)nc12` [Example 39], the 50% inhibitory concentration (IC50) came to 26 nM.
To `CNc1cc(C(=O)O)nc2c(-c3cccc(O)c3)nc(N3CCOCC3)nc12` [Example 40, 4-(3-Hydroxyphenyl)-8-(methylamino)-2-morpholin-4-ylpyrido[3,2-d]pyrimidine-6-carboxylic acid] belongs 144 nM.

(Values after US8609666B2, “2-morpholino-pyrido[3,2-D]pyrimidines” (Merck Serono SA, priority 2009, dated 2013).)
